Measured values taken from PubChem BioAssay (NCI).
Values joined by “and” are separate entries in the source; they are usually repeats but may differ in a detail not shown here. Identical values can stand only once.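 Dose response: 5 concentrations. Exposure: 48 h. Format: 96-well plates. Endpoint: linear interpolation; highest concentration if not reached. GI50 is the concentration that inhibits growth by half. The concentration for full growth arrest is given as TGI.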

How the values were obtained:
Assay in all cases: NCI tumour cell line growth inhibition, 48 h
DLD-1 colon = test system: DLD-1 colon
LXFL 529 NSCLC = test system: LXFL 529 NSCLC
M19-MEL melanoma = test system: M19-MEL melanoma
SNB-78 CNS = test system: SNB-78 CNS
XF 498 CNS = test system: XF 498 CNS
DMS 273 small cell lung = test system: DMS 273 small cell lung
RXF-631 renal = test system: RXF-631 renal
MDA-N = test system: MDA-N
P388 leukemia = test system: P388 leukemia
P388/ADR leukemia = test system: P388/ADR leukemia
SN12K1 renal = test system: SN12K1 renal

Structure (SMILES)	TGI (DLD-1 colon) [µM]	TGI (LXFL 529 NSCLC) [µM]	TGI (M19-MEL melanoma) [µM]	TGI (SNB-78 CNS) [µM]	TGI (XF 498 CNS) [µM]	TGI (DMS 273 small cell lung) [µM]	TGI (RXF-631 renal) [µM]	TGI (MDA-N) [µM]	TGI (P388 leukemia)	TGI (P388/ADR leukemia)	TGI (SN12K1 renal) [µM]	GI50 (MDA-N) [µM]	GI50 (DLD-1 colon) [µM]	GI50 (M19-MEL melanoma) [µM]
COc1cc(/C=C/c2csnn2)cc(OC)c1OC	> 100	> 100	> 100	> 100	> 100	–	–	–	–	–	–	–	–	–
Cc1ccccc1C(CCCO)C(=O)O (stereo unspecified)	> 100	> 100	> 100	> 100	> 100	> 100	–	–	–	–	–	–	–	–
COc1ccc2nc(NC(=O)C(=O)CC(=O)c3ccc([N+](=O)[O-])cc3)sc2c1	> 100	> 100	> 100	–	> 100	> 100	> 100	–	–	–	–	–	–	–
COC12C(COC(=O)NCCO)C3=C(C(=O)C(C)=C(N)C3=O)N1CC1NC12 (stereo unspecified)	–	–	–	–	–	–	–	> 264	–	–	–	–	–	–
O=NN(CCCl)C(=O)NC1CCC(CC(=O)O)CC1 (stereo unspecified)	> 100	> 100	> 100	> 100	> 100	> 100	–	–	> 62.3 µM and 16.7 µM	> 100 µM and 13.7 µM	> 100	–	–	–
NC1=NC(Cn2nc(-c3ccccc3)c3ccccc3c2=O)=NNC(=O)N1	> 100	> 100	> 100	> 100	–	> 100	–	–	–	–	–	–	–	–
O=[N+]([O-])c1ccc(-c2ccc(C3=Nn4c(CNc5ccccc5Cl)nnc4SC3)o2)cc1	> 100	> 100	> 100	> 100	> 100	> 100	–	–	–	–	–	–	–	–
Cc1ccc(S(=O)(=O)NCCCCC(N)C(=O)O)cc1 (stereo unspecified)	–	–	–	–	–	–	–	> 100	–	–	–	–	–	–
CCOC(=O)/C(=C/c1ccccn1)C(=O)c1ccccc1	29.5	23.5	31.3	38.9	30.3	27.3	28.9	–	–	–	–	–	–	–
O=C1CC(c2ccc(Cl)cc2)=Nc2ccccc2N1	> 100	> 100	> 100	> 100	–	> 100	> 100	–	–	–	–	–	–	–
O=C1C2C3C=CC(C2C(=O)N1CO)C1C2C(=O)N(CO)C(=O)C2C31 (stereo unspecified)	> 73.7	> 100	> 100	> 100	> 100	> 59.1	> 100	–	–	–	–	–	–	–
Cc1nc2ccccc2c(=O)n1/N=C(\N=Nc1ccccc1Cl)c1ccccc1Cl	> 100	> 100	> 100	–	26.8	> 100	> 100	–	–	–	–	–	–	–
CCO/C=C1\SC(=S)N(c2ccc(OCC)cc2)C1=O	–	–	–	–	–	–	–	> 100	–	–	–	–	–	–
CN1CCOC(C(NC(=O)c2ccccc2)c2ccccc2)C1=O (stereo unspecified)	> 100	–	> 100	> 100	–	> 100	–	–	–	–	–	–	–	–
[O]=[V]([OH])([OH])[OH]	–	–	–	–	–	–	–	> 100	–	–	–	94.6	–	–
CC(=O)OCC(=O)[C@@]1(O)CC[C@H]2[C@@H]3C[C@H](C)C4=CC(=O)C=C[C@]4(C)[C@@]3(F)[C@@H](O)C[C@@]21C	> 100	–	> 100	> 100	> 100	> 100	> 100	–	–	–	–	–	–	–
CC(=O)Nc1ccc(C2CC(c3ccc([N+](=O)[O-])cc3)=Nc3ccccc3S2=O)cc1 (stereo unspecified)	34.5	34.6	38	–	55.8	35.8	–	–	–	–	–	–	–	–
CC(=O)[CH-]C(=O)c1ccccc1.[C-]#[O+].[C-]#[O+].[Ir]	> 100	–	> 100	–	–	–	–	–	–	–	–	–	> 100	> 100
O=C(NCCc1ccccc1)C1C(=O)C(=O)N(CCc2ccccc2)C1=O (stereo unspecified)	> 100	> 100	> 100	> 100	> 100	> 100	> 100	–	–	–	–	–	–	–
O=C(c1ccccc1)[C@H]1Nc2ccc(Cl)cc2[C@H]2CCC[C@@H]12	> 100	64.9	> 100	> 100	54.2	> 100	> 100	–	–	–	–	–	–	–
